{"source": "paper PMC11881906", "about": "“Development of xanthone derivatives as effective broad-spectrum antimicrobials: Disrupting cell wall and inhibiting DNA synthesis” (Science Advances, 2025)", "key": {"[1]": {"experiment": "In vivo corneal toxicity, fluorescein staining", "design": "species or system mice", "details": "topical application to murine cornea", "experimental": "In addition, the in vivo toxicity assessment of compound XT17 toward murine cornea was conducted through local application using 1% fluorescein sodium solution to stain the cornea."}, "[2]": {"experiment": "Plasma pharmacokinetic study", "assay_type": "in vivo, CD-1 mice", "details": "for Mean plasma concentration: LLOQ=10 ng/mL; for bioavailability: dose-normalised AUCINF, read-out: bioavailability (F)", "experimental": "Mouse plasma PK studies were performed at Shanghai Ruizhi Chemical Research Co. Ltd. All experiments related to animals were conducted in compliance with the ethical guidelines approved by the Institutional Animal Care and Use Committee (IACUC) of the Shanghai Ruizhi Chemical Research Co. Ltd. Male CD-1 mice (6 to 8 weeks) were treated with the corresponding dose of drugs formulated in 5% glucose solution (D5W) delivered via intravenous injection via tail vein, intraperitoneal injection, or subcutaneous injection. Following administration, approximately 110 μl of blood was taken via facial vein […] at 0.083, 0.25, 0.5, 1, 2, 4, 8, and 24 hours into K2EDTA tubes. Blood samples were placed on ice and centrifuged to obtain plasma samples (2000g, 5 min under 4°C). Plasma samples were stored at approximately −70°C until analysis. The XT17 concentration in plasma PK studies was measured by liquid chromatography–tandem mass spectrometry (LC-MS/MS) assay using an LC-MS/MS-22 (Triple Quad 6500) instrument. Plasma concentrations versus time data and PK parameters were estimated from noncompartmental analysis using WinNonlin 8.2."}, "[3]": {"target": "T1, E. coli DNA gyrase (Escherichia coli, UniProt P0AES4+P0AES6)", "T1 construct": "purchased ProFoldin (Worcester, MA)", "T1 sequence (P0AES4 whole entry, one chain of several)": "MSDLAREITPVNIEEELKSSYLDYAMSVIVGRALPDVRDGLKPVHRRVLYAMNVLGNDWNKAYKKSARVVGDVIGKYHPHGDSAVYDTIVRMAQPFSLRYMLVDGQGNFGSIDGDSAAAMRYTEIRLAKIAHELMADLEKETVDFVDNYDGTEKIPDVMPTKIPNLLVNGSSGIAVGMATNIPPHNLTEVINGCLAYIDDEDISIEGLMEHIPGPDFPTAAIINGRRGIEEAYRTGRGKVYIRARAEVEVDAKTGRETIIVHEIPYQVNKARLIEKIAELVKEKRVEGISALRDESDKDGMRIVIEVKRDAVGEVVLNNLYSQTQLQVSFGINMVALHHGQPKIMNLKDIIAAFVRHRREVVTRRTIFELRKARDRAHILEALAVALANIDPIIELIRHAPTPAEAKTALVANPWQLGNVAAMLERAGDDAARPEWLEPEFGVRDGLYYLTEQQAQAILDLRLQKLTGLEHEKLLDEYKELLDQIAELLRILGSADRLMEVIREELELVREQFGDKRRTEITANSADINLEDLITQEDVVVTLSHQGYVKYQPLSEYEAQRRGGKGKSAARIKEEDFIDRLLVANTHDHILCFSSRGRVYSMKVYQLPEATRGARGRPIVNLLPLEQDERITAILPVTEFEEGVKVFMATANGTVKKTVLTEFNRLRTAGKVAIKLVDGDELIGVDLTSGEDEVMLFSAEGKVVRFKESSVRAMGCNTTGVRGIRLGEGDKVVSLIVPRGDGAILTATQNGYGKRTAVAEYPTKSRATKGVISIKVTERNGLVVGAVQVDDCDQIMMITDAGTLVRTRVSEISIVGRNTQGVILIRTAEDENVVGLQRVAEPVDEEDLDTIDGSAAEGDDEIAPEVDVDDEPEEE", "experiment": "DNA gyrase supercoiling inhibition assay", "assay_type": "biochemical", "experimental": "E. coli topoisomerase enzymes (II and IV) were supplied by ProFoldin (Worcester, MA), and assays were performed according to the manufacturer’s instructions. Briefly, the DNA supercoiling assay was conducted in a volume of 40 μl containing 24 μl of H2O, 4 μl of 10× buffer, 4 μl of 10× relaxed DNA, 4 μl of 10× enzyme, and 4 μl of 10 mM adenosine triphosphate (ATP). Following a 60-min incubation at room temperature, 200 μl of H2O was added to each reaction mixture. Topoisomerase IV decatenation inhibition assay was conducted in a volume of 50 μl containing 38.5 μl of H2O, 5 μl of 10× buffer, 5 μl of 10× concatenated DNA, 0.5 μl of 100× enzyme, and 1 μl of 10 mM ATP. After 60 min of incubation at 37°C, 5 μl of 0.4 M EDTA was added to stop the reaction. […]\nIn the supercoiling inhibition assay, the fluorescence intensity was measured using freshly prepared 1× H19 dye, which was prepared by diluting 100× H19 dye with 10 mM tris-HCl and 10 mM NaCl (pH 7.0). […] In the decatenation inhibition assay, the change in fluorescence intensity was monitored using the 1× fluorescence dye after diluting the 20× dye with water. The reaction solution eluted from the column was mixed with 150 μl of 1× fluorescence dye. The fluorescence intensity for both assays was lastly detected at 535 nm using an excitation wavelength of 485 nm. […]"}, "[4]": {"tested_on": "rabbit erythrocytes", "experiment": "Hemolysis assay", "assay_type": "cell-based", "details": "concentration causing 50% hemolysis of red blood cells; 1 hour, 37°C", "procedure,_shortened": "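Washed rabbit erythrocytes, 8% (v/v) in PBS pH 7.4, incubated 1 h at 37 °C with twofold-diluted compounds (DMSO <0.5%). Haemoglobin release read at 576 nm in supernatant; % hemolysis normalised between PBS (0%) and 0.2% Triton X-100 (100%), three repeats in duplicate.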"}, "[5]": {"details": "male, CD-1, mouse, plasma, ip, 20 mg/kg, ip 20 mg/kg"}, "[6]": {"details": "male, CD-1, mouse, plasma, iv, 5 mg/kg, IV 5 mg/kg"}, "[7]": {"details": "male, CD-1, mouse, plasma, sc, 40 mg/kg, sc 40 mg/kg"}, "[8]": {"details": "male, CD-1, mouse, plasma, IP 20 mg/kg"}, "[9]": {"details": "male, CD-1, mouse, plasma, IV 5 mg/kg"}, "[10]": {"details": "male, CD-1, mouse, plasma, SC 40 mg/kg"}}, "note": "Where two headings read alike, the source gives them in different places."}
{"smiles": "CC(C)=CCOc1cc(OCCCNC(=N)N)cc2oc3cc(OCCCNC(=N)N)ccc3c(=O)c12", "note": "[XT17]", "values": [{"measurement": "corneal damage (slit-lamp, fluorescein staining)", "setting": "[1]", "value": "no notable signs of corneal damage"}, {"measurement": "MRTIast", "setting": "[2]; IP 20 mg/kg", "value": 1.08, "unit": "h"}, {"measurement": "Mean plasma concentration", "setting": "[2]; IP 20 mg/kg, 24 hr", "value": "BQL"}, {"measurement": "Mean plasma concentration", "setting": "[2]; IV 5 mg/kg, 8 hr", "value": "BQL"}, {"measurement": "Mean plasma concentration", "setting": "[2]; IV 5 mg/kg, 24 hr", "value": "BQL"}, {"measurement": "MRTIast", "setting": "[2]; SC 40 mg/kg", "value": 5.54, "unit": "h"}, {"measurement": "time blood concentrations maintained above MICs", "setting": "[2]; iv single dose 5 mg/kg", "value": "more than 4 hours"}, {"measurement": "bioavailability", "setting": "[2]; male, CD-1, mouse, plasma, intraperitoneal, ip 20 mg/kg vs iv 5 mg/kg", "value": 69.7, "unit": "%"}, {"measurement": "Cmax", "setting": "[2]; male, CD-1, mouse, plasma, ip, 20 mg/kg, IP 20 mg/kg", "value": 18400, "unit": "ng/mL"}, {"measurement": "Cmax", "setting": "[2]; [5]", "value": 18400, "unit": "ng/mL"}, {"measurement": "half-life", "setting": "[2]; [5]", "value": 1.02, "unit": "h"}, {"measurement": "clearance", "setting": "[2]; [6]", "value": 9.68, "unit": "mL/min/kg"}, {"measurement": "half-life", "setting": "[2]; [6]", "value": 0.478, "unit": "h"}, {"measurement": "half-life", "setting": "[2]; male, CD-1, mouse, plasma, iv, 5 mg/kg, iv 5 mg/kg", "value": 0.48, "unit": "h"}, {"measurement": "Cmax", "setting": "[2]; male, CD-1, mouse, plasma, iv, 5 mg/kg, iv 5 mg/kg, for bolus iv Cmax = C0", "value": 20300, "unit": "ng/mL"}, {"measurement": "Cmax", "setting": "[2]; male, CD-1, mouse, plasma, sc, 40 mg/kg, SC 40 mg/kg", "value": 8680, "unit": "ng/mL"}, {"measurement": "Cmax", "setting": "[2]; [7]", "value": 8680, "unit": "ng/mL"}, {"measurement": "half-life", "setting": "[2]; [7]", "value": 4.68, "unit": "h"}, {"measurement": "bioavailability", "setting": "[2]; male, CD-1, mouse, plasma, subcutaneous, sc 40 mg/kg vs iv 5 mg/kg", "value": 87.3, "unit": "%"}, {"measurement": "AUC(0-inf)", "setting": "[2]; [8]", "value": 24000, "unit": "ng·h/mL"}, {"measurement": "AUC(0-t)", "setting": "[2]; [8]", "value": 23900, "unit": "ng·h/mL"}, {"measurement": "MRT inf", "setting": "[2]; [8]", "value": 1.13, "unit": "h"}, {"measurement": "Tmax", "setting": "[2]; [8]", "value": 0.25, "unit": "h"}, {"measurement": "concentration at 0.083 h", "setting": "[2]; [8]", "value": 17500, "unit": "ng/mL"}, {"measurement": "concentration at 0.25 h", "setting": "[2]; [8]", "value": 18400, "unit": "ng/mL"}, {"measurement": "concentration at 0.5 h", "setting": "[2]; [8]", "value": 14100, "unit": "ng/mL"}, {"measurement": "concentration at 1 h", "setting": "[2]; [8]", "value": 9190, "unit": "ng/mL"}, {"measurement": "concentration at 2 h", "setting": "[2]; [8]", "value": 2770, "unit": "ng/mL"}, {"measurement": "concentration at 4 h", "setting": "[2]; [8]", "value": 452, "unit": "ng/mL"}, {"measurement": "concentration at 8 h", "setting": "[2]; male, CD-1, mouse, plasma, IP 20 mg/kg, 8 hr", "value": 90.1, "unit": "ng/mL"}, {"measurement": "AUC(0-inf)", "setting": "[2]; [9]", "value": 8610, "unit": "ng·h/mL"}, {"measurement": "AUC(0-t)", "setting": "[2]; [9]", "value": 8590, "unit": "ng·h/mL"}, {"measurement": "MRT inf", "setting": "[2]; [9]", "value": 0.42, "unit": "h"}, {"measurement": "MRT last", "setting": "[2]; [9]", "value": 0.412, "unit": "h"}, {"measurement": "concentration at 0.083 h", "setting": "[2]; [9]", "value": 20300, "unit": "ng/mL"}, {"measurement": "concentration at 0.25 h", "setting": "[2]; [9]", "value": 7360, "unit": "ng/mL"}, {"measurement": "concentration at 0.5 h", "setting": "[2]; [9]", "value": 3630, "unit": "ng/mL"}, {"measurement": "concentration at 1 h", "setting": "[2]; [9]", "value": 1770, "unit": "ng/mL"}, {"measurement": "concentration at 2 h", "setting": "[2]; [9]", "value": 282, "unit": "ng/mL"}, {"measurement": "concentration at 4 h", "setting": "[2]; [9]", "value": 23.3, "unit": "ng/mL"}, {"measurement": "Vd", "setting": "[2]; male, CD-1, mouse, plasma, IV 5 mg/kg, read-out: Vss", "value": 0.244, "unit": "L/kg"}, {"measurement": "AUC(0-inf)", "setting": "[2]; [10]", "value": 60100, "unit": "ng·h/mL"}, {"measurement": "AUC(0-t)", "setting": "[2]; [10]", "value": 58800, "unit": "ng·h/mL"}, {"measurement": "MRT inf", "setting": "[2]; [10]", "value": 6.07, "unit": "h"}, {"measurement": "Tmax", "setting": "[2]; [10]", "value": 1, "unit": "h"}, {"measurement": "concentration at 0.083 h", "setting": "[2]; [10]", "value": 7730, "unit": "ng/mL"}, {"measurement": "concentration at 0.25 h", "setting": "[2]; [10]", "value": 6690, "unit": "ng/mL"}, {"measurement": "concentration at 0.5 h", "setting": "[2]; [10]", "value": 7340, "unit": "ng/mL"}, {"measurement": "concentration at 1 h", "setting": "[2]; [10]", "value": 8680, "unit": "ng/mL"}, {"measurement": "concentration at 2 h", "setting": "[2]; [10]", "value": 4620, "unit": "ng/mL"}, {"measurement": "concentration at 4 h", "setting": "[2]; [10]", "value": 3560, "unit": "ng/mL"}, {"measurement": "concentration at 8 h", "setting": "[2]; male, CD-1, mouse, plasma, SC 40 mg/kg, 8 hr", "value": 2810, "unit": "ng/mL"}, {"measurement": "concentration at 24 h", "setting": "[2]; male, CD-1, mouse, plasma, SC 40 mg/kg, 24 hr", "value": 188, "unit": "ng/mL"}, {"measurement": "time blood concentrations maintained above MICs", "setting": "[2]; sc single dose 40 mg/kg", "value": "more than 8 hours"}, {"measurement": "Inhibition of DNA gyrase (%)", "setting": "[3]; 1× MIC", "value": "81.45 ± 1.33", "unit": "%"}, {"measurement": "inhibitory effect on bacterial DNA gyrase in vitro", "setting": "[3]; concentration not stated (Discussion)", "value": "~ 90%"}, {"measurement": "HC50", "setting": "[4]", "value": ">200", "unit": "µg/mL"}]}
